Reference: patent US12501895B2, “Composition for cryopreservation of myocardial cells” (BEIJING BAHEAL WISART MEDICAL RESEARCH CO., LTD, priority 2020, dated 2025)

System: human cardiomyocytes
Experiment: ex vivo culture of human cardiomyocytes for 7 days, rod-shaped rate (Example 4)
Format: cell-based
Conditions: 5-50 μM PAB versus 10 μM BLEB in M199 basal medium, cultured 7 days at 37° C., FIG. 4
Method: The purpose of this experiment was to investigate the effects of BLEB and PAB on cell survival rate and morphology during the ex vivo survival of cardiomyocytes, so as to predict the similarity of their roles during cryopreservation and resuscitation of cardiomyocytes.
10% fetal bovine serum, 100 U/ml penicillin and 100 μg/ml streptomycin were added to the M199 medium (purchased from Sigma Inc.), and the resulting medium was used as a basal medium. The experiments were divided into 6 groups, in which DMSO (as a control group), as well as 10 μM BLEB and 5 μM, 10 μM, 20 μM, and 50 μM PAB were added to the basal medium, respectively. The isolated human cardiomyocytes were divided into 6 groups, and the cells were plated on a 48-well cell culture plate coated with 200 μg/ml laminin in advance using 6 media, and the plate was placed and cultured in a cell incubator (with 5% CO2, and a relative saturated humidity of 95%) at 37° C. for 7 days.

SMILES: Cc1ccc2c(c1)C(=O)[C@]1(O)CCN(c3ccc(N)cc3)C1=N2 [PAB, para-aminoblebbistatin]
- rod-shaped rate of cardiomyocytes: close to or even better than the 10 μM BLEB group
